Data taken from the supplement of paper PMC11451515.

Test system: SEM cells
Assay: cell viability relative to DMSO control; higher = less cytotoxic
Conditions: 48 h
Outline: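 Library compounds in DMSO were pin-dosed into 1536-well plates (5 μl) holding NOMO1 or SEM (500 cells/well) or P12-Ichikawa (1000 cells/well) leukemia cells, across an 11-point threefold series of 47 μM to 0.79 nM. Each cell line had been adapted for at least four passages in each medium. CellTiter-Glo One luminescence was read after 48 h at 37°C. Viability is the per-plate percentage relative to DMSO wells, with cell-free wells as background.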

[1] = HPLM + 10% dialyzed FBS, 0.000781 µM
[2] = HPLM + 10% dialyzed FBS, 0.00234 µM
[3] = HPLM + 10% dialyzed FBS, 0.00702 µM
[4] = HPLM + 10% dialyzed FBS, 0.0211 µM
[5] = HPLM + 10% dialyzed FBS, 0.0632 µM
[6] = HPLM + 10% dialyzed FBS, 0.19 µM
[7] = HPLM + 10% dialyzed FBS, 0.569 µM
[8] = HPLM + 10% dialyzed FBS, 1.71 µM
[9] = HPLM + 10% dialyzed FBS, 5.12 µM
[10] = HPLM + 10% dialyzed FBS, 15.4 µM
[11] = HPLM + 10% dialyzed FBS, 46.1 µM
[12] = RPMI 5 mM glucose + 10% FBS, 0.000781 µM
[13] = RPMI 5 mM glucose + 10% FBS, 0.00234 µM
[14] = RPMI 5 mM glucose + 10% FBS, 0.00702 µM
[15] = RPMI 5 mM glucose + 10% FBS, 0.0211 µM
[16] = RPMI 5 mM glucose + 10% FBS, 0.0632 µM
[17] = RPMI 5 mM glucose + 10% FBS, 0.19 µM
[18] = RPMI 5 mM glucose + 10% FBS, 0.569 µM
[19] = RPMI 5 mM glucose + 10% FBS, 1.71 µM
[20] = RPMI 5 mM glucose + 10% FBS, 5.12 µM
[21] = RPMI 5 mM glucose + 10% FBS, 15.4 µM
[22] = RPMI 5 mM glucose + 10% FBS, 46.1 µM
[23] = RPMI 5 mM glucose + 10% dialyzed FBS, 0.000781 µM
[24] = RPMI 5 mM glucose + 10% dialyzed FBS, 0.00234 µM
[25] = RPMI 5 mM glucose + 10% dialyzed FBS, 0.00702 µM
[26] = RPMI 5 mM glucose + 10% dialyzed FBS, 0.0211 µM
[27] = RPMI 5 mM glucose + 10% dialyzed FBS, 0.0632 µM
[28] = RPMI 5 mM glucose + 10% dialyzed FBS, 0.19 µM
[29] = RPMI 5 mM glucose + 10% dialyzed FBS, 0.569 µM
[30] = RPMI 5 mM glucose + 10% dialyzed FBS, 1.71 µM
[31] = RPMI 5 mM glucose + 10% dialyzed FBS, 5.12 µM
[32] = RPMI 5 mM glucose + 10% dialyzed FBS, 15.4 µM
[33] = RPMI 5 mM glucose + 10% dialyzed FBS, 46.1 µM

Structure (SMILES) | cell viability [1] [%] | cell viability [2] [%] | cell viability [3] [%] | cell viability [4] [%] | cell viability [5] [%] | cell viability [6] [%] | cell viability [7] [%] | cell viability [8] [%] | cell viability [9] [%] | cell viability [10] [%] | cell viability [11] [%] | cell viability [12] [%] | cell viability [13] [%] | cell viability [14] [%] | cell viability [15] [%] | cell viability [16] [%] | cell viability [17] [%] | cell viability [18] [%] | cell viability [19] [%] | cell viability [20] [%] | cell viability [21] [%] | cell viability [22] [%] | cell viability [23] [%] | cell viability [24] [%] | cell viability [25] [%] | cell viability [26] [%] | cell viability [27] [%] | cell viability [28] [%] | cell viability [29] [%] | cell viability [30] [%] | cell viability [31] [%] | cell viability [32] [%] | cell viability [33] [%]
CC(C)NCC(O)COc1ccc(COCCOC(C)C)cc1 (centres undefined) | 110 | 115 | 122 | 103 | 124 | 105 | 129 | 132 | 116 | 110 | 118 | 106 | 124 | 130 | 120 | 132 | 118 | 109 | 123 | 121 | 131 | 105 | 123 | 125 | 124 | 115 | 117 | 129 | 118 | 138 | 106 | 126 | 114
CN\1C(=O)/C(=C(\N=C1N2CCCC[S+]2([O-])=O)C(=O)NCC3=CC=C(F)C=C3)O | 98.9 | 107 | 104 | 97.3 | 98.5 | 96.6 | 96.9 | 107 | 98.3 | 109 | 91.2 | – | – | – | – | – | – | – | – | – | – | – | 104 | 95.1 | 103 | 116 | 121 | 97.8 | 107 | 111 | 85.5 | 111 | 95.3
COc1cc2c(cc1OC)C1CC(=O)C(CC(C)C)CN1CC2 (centres undefined) | 84.5 | 116 | 99.6 | 107 | 98.4 | 100 | 118 | 110 | 112 | 103 | 96.5 | 116 | 114 | 110 | 118 | 103 | 110 | 114 | 118 | 118 | 116 | 109 | 120 | 140 | 113 | 117 | 97.1 | 129 | 111 | 129 | 124 | 119 | 103
COc1cc2c(cc1-c1c(C)noc1C)ncc1[nH]c(=O)n([C@H](C)c3ccccn3)c12 | – | – | – | – | – | – | – | – | – | – | – | 117 | 106 | 140 | 120 | 119 | 114 | 102 | 65.4 | 8.34 | 6.3 | 3.15 | 101 | 94.8 | 110 | 119 | 101 | 96.1 | 76.5 | 49.7 | 6.42 | 6.4 | 3.1
ClC1=C(N\C2=N\CCN2)C3=NSN=C3C=C1 | 77.6 | 91.6 | 107 | 69.7 | 97.8 | 105 | 102 | 111 | 115 | 116 | 113 | 93.7 | 111 | 115 | 74.6 | 121 | 114 | 114 | 109 | 117 | 126 | 126 | 94.2 | 105 | 110 | 69.1 | 120 | 122 | 129 | 121 | 118 | 137 | 137
C[C@]12CC[C@@H]3c4ccc(OC(=O)N(CCCl)CCCl)cc4CC[C@H]3[C@@H]1CC[C@@H]2OP(=O)([O-])[O-].[Na+].[Na+] | 107 | 107 | 120 | 109 | 106 | 105 | 104 | 108 | 66.8 | 62.5 | 63.2 | 101 | 118 | 120 | 99.2 | 118 | 115 | 87.9 | 90.5 | 68.1 | 65.4 | 27.5 | 111 | 112 | 102 | 85.3 | 110 | 93.9 | 83.4 | 76.3 | 67.5 | 65.3 | 54.9
CC(C)(C)C(=O)Oc1ccc2c(c1)nc(NC(=O)c1cccc([N+](=O)[O-])c1)n2CCCO | 107 | 122 | 118 | 119 | 110 | 120 | 110 | 104 | 102 | 88.5 | 93.2 | 130 | 120 | 118 | 112 | 117 | 126 | 114 | 95.7 | 97.5 | 105 | 118 | 121 | 138 | 122 | 116 | 108 | 121 | 101 | 81.1 | 107 | 106 | 128
CCC[C@H](NC(=O)/C(C#N)=C/c1cccc(Br)n1)c1ccccc1 | 121 | 125 | 119 | 26.5 | 124 | 117 | 111 | 124 | 120 | 98.6 | 6.55 | 94.4 | 110 | 104 | 17.6 | 112 | 111 | 102 | 113 | 111 | 57.1 | 7.49 | – | – | – | – | – | – | – | – | – | – | –
C[C@]12C[C@H](O)[C@H]3[C@@H](CC\C4=C\C(=O)\C=C/[C@]34C)[C@@H]1CC[C@]2(O)C(=O)CO | 113 | 112 | 119 | 118 | 129 | 118 | 98.6 | 102 | 44.8 | 67.2 | 22.6 | 118 | 115 | 114 | 143 | 123 | 127 | 107 | 90.1 | 40.9 | 64.9 | 19.6 | – | – | – | – | – | – | – | – | – | – | –
CN(c1ncccc1CNc1nc(Nc2ccc3c(c2)CC(=O)N3)ncc1C(F)(F)F)[S+](C)(=O)[O-] | – | – | – | – | – | – | – | – | – | – | – | 120 | 122 | 140 | 129 | 129 | 92.7 | 99 | 91.3 | 13 | 18.9 | 4.29 | 112 | 125 | 122 | 119 | 140 | 119 | 111 | 17.1 | 11.8 | 11.6 | 3.18
C[C@H](NC(=O)/C(C#N)=C/c1cccc(Br)n1)c1ccccc1 | 89.8 | 102 | 98.7 | 109 | 118 | 112 | 103 | 40.7 | 8.01 | 6.81 | 6.6 | 91.1 | 98.2 | 102 | 107 | 91.9 | 97.6 | 93.2 | 13 | 7.6 | 6.42 | 6.63 | 74.5 | 116 | 102 | 122 | 104 | 116 | 108 | 38.2 | 8.38 | 7.55 | 7.44
CC(C)n1c(/C=C/[C@H](O)C[C@H](O)CC(=O)O)c(-c2ccc(F)cc2)c2ccccc21 | 102 | 99.3 | 123 | 107 | 125 | 129 | 105 | 99.2 | 85 | 83.4 | 37.9 | 103 | 105 | 126 | 107 | 116 | 113 | 106 | 103 | 95.5 | 60.7 | 19 | 92.9 | 90.7 | 129 | 112 | 126 | 129 | 129 | 116 | 101 | 83.8 | 26.8
CC1=CC=CC=C1N2\C(=N/C3=C(C(=CC=C3)C)C2=O)C[N]4C=NC5=C4N=CN=C5N | 97.1 | 110 | 115 | 92.6 | 83.8 | 77.7 | 67.3 | 72.1 | 49.6 | 46.6 | 37.2 | 90.8 | 93 | 94.3 | 65.9 | 83.4 | 62.1 | 59.4 | 54.8 | 45 | 34.4 | 20.8 | 93.2 | 112 | 120 | 84.3 | 90 | 77.5 | 68.1 | 64.8 | 53.5 | 46.2 | 33.8
CN1[C@@H]2CC[C@H]1CC(OC(=O)c1c[nH]c3ccccc13)C2 (some centres undefined) | 111 | 109 | 118 | 25.9 | 130 | 130 | 126 | 117 | 114 | 114 | 124 | 113 | 115 | 124 | 17.8 | 123 | 116 | 111 | 119 | 137 | 98.6 | 93.6 | – | – | – | – | – | – | – | – | – | – | –
CC(C)c1cnn2c(NCc3ccccc3)cc(N[C@@H](CO)[C@H](O)CO)nc12 | 117 | 140 | 120 | 119 | 142 | 136 | 79.9 | 9.33 | 5.66 | 4.28 | 1.69 | – | – | – | – | – | – | – | – | – | – | – | 121 | 134 | 121 | 123 | 120 | 121 | 80.7 | 8.71 | 5.19 | 3.66 | 1.44
CCN(CC)CC#CCOC(=O)C(O)(c1ccccc1)C1CCCCC1 (centres undefined) | 108 | 109 | 98.1 | 92.4 | 115 | 111 | 124 | 121 | 105 | 129 | 98.5 | 108 | 117 | 126 | 80 | 115 | 121 | 118 | 120 | 125 | 104 | 102 | 117 | 112 | 145 | 83.3 | 126 | 132 | 142 | 120 | 135 | 129 | 99.3
COc1ccc(Cc2ccc(NC(N)=O)cc2)cc1-c1cccc(Cl)c1 | 106 | 104 | 110 | 95.4 | 122 | 123 | 106 | 119 | 120 | 122 | 106 | 100 | 102 | 101 | 117 | 110 | 113 | 113 | 115 | 113 | 115 | 103 | 107 | 111 | 113 | 123 | 124 | 122 | 108 | 111 | 120 | 108 | 87.3
